Tests used:
[1] = cited from earlier work
[2] = 20° C.; cited from earlier work
knees of patients = assay: Intra-articular ozone and PRP treatment of knees, VAS scores; assay type: in vivo, human; conditions: 8 sessions of ozone and 2 sessions of PRP, 187 knees of 100 patients, baseline 8.5
From the text: Ozone gas injection may cause short-term burning and itching. However, this effect is rarely seen in intramuscular injections. For this reason, ozonide solutions comprising local anesthetic should be preferred especially if superficial injection will be performed. […] It is known that it prevents loss of cartilage by increasing oxygenation of the joint cartilage and reduces pain due to the analgesic effect with its anti-inflammatory effect. There are many publications in the literature about this issue. Similarly, in our own research, it was observed that VAS scores decreased from 8.5 to 4 on average as a result of the application of 8 sessions of ozone and 2 sessions of PRP treatment on 187 knees of 100 patients. In these applications, 20 micrograms of ozone are given as 20 ml (cc). That is, 400 micrograms of ozone have been applied. […] It can be applied at most twice a week. In addition, it can be combined with local anesthetic and anti-inflammatory agents. Vitamin E, which becomes popular in experimental studies in recent years, can be applied together with oil solutions and anti-inflammatory drugs. Hyaluronic acid is known to increase cartilage matrix in the intraarticular injection. It is known that better results are obtained with the ozone treatment and hyaluronic acid combinations. […]

[3] = test system: patients diagnosed with a cervical disc hernia; assay: Regional injections of ozone and PRP in cervical disc hernia, VAS pain score; assay type: in vivo, human; conditions: 8 sessions of ozone, 2 sessions of PRP, 66 patients, 9.3 at the beginning
Procedure: Cervical disc and spinal disc hernias are one of the common health issues. In the studies we conduct on 66 patients diagnosed with a cervical disc hernia, the pain score is evaluated according to the VAS in 1 month, 4 months and 1 year after the regional injections of 8 sessions of ozone, 2 sessions of PRP. The pain score was 9.3 at the beginning, 6.9 in the first month, 4.8 in the 4th month and 3.6 at the end of the first year. It is also found in the literature that the regional injections of ozone are so effective. However, to perform these applications, there is a need for a clinic or a hospital where ozone treatment is offered. The dosages of solutions of ozonized oil or ozonides in water in regional applications are also applicable here. Depending on the size of the region, the ozonized oil or ozonide solution of 2-4 mg (2000-4000 ppm), which is made with ozonides comprising 10% ozone may be injected into paravertebral muscles and subcutaneous tissue to be able to benefit from anti-inflammatory and analgesic effects. However, with tissue oxygenation, dissolution of muscle spasm, and increased blood supply to the hernia, a long-acting treatment and shrinking of the hernia is provided.

CCN(CC)CC(=O)Nc1c(C)cccc1C [Lidocaine]
duration of effect in the injection zone ([1]; normal injection): up to 2 hours

CCCCN1CCCCC1C(=O)Nc1c(C)cccc1C (stereo not shown) [bupivacaine]
duration of local effect ([1]; injection in oil): 72 h

O=[O+][O-] [ozone]
half life [2]: 40 min | VAS score after treatment, average (knees of patients): 4 | VAS pain score at the end of the first year [3]: 3.6 | VAS pain score in the 4th month [3]: 4.8 | VAS pain score in the first month [3]: 6.9
